Reference: PMC8719521, “Spectral, Anti-Inflammatory, Anti-Pyretic, Leishmanicidal, and Molecular Docking Studies, Against Selected Protein Targets, of a New Bisbenzylisoquinoline Alkaloid” (Frontiers in Chemistry, 2021)

Tests used:
yeast-induced pyrexia = assay: Anti-pyretic studies, brewer's yeast-induced pyrexia; assay type: in vivo, Albino rats; conditions: for activity against yeast-induced hyperthermia: 10 and 20 mg/kg s.c., 30, 60, and 120 min
Method: (§1) Albino rats (180–200 g) of either sex were used in all experiments. The animals were kept under standard laboratory conditions (25 °C and light/dark cycles, i.e., 12/12 h) and were fed with standard food and water ad libitum.
Albino rats of either sex weighing 180–200 g were used for anti-pyretic studies. The animals were divided into five groups with each group having six albino rats (n = 6). All the animals were given free access to food and water. Basal rectal temperature was measured using a digital clinical thermometer before injecting the yeast. Hyperthermia was induced in rats by sub-cutaneous (s.c.) injection of 20% aqueous suspension of brewer’s yeast (20 ml/ kg) in the back below the nape of the neck ([Loux et al., 1972]). Group 1 was treated with normal saline as a control, and group 2 was treated with indomethacin (10 mg/kg, s. c) as the standard drug, while the remaining groups 3–5 were treated with compound 1–5 (10 mg/ kg and 20 mg/ kg, s. c). After 24 h from the yeast injection, the rise in the rectal temperature was recorded at regular intervals of 30, 60, and 120 min after drug administration.

[1] = system: promastigotes of Leishmania tropica (clinical field isolate KWH23); assay: Anti-leishmanial assay on promastigotes; assay type: cell-based; conditions: for anti-leishmanial properties: at all four tested concentrations, 48 h
Method: The initial culture was raised in the 5 ml M-199 medium supplemented with 10% heat-inactivated fetal bovine serum (HI-FBS), 100 μg/ ml penicillin, 100 μg/ ml streptomycin, 50 μg/ ml kanamycin, and 5 μg/ ml of hemin in a 15-ml culture flask. The culture flask was kept in an incubator at 26°C, and the medium was changed every third day. The cultures were given enough time (10–14 days) to fully develop and promastigotes to reach the metacyclic stage. The culture was then sub-passaged by pouring the contents of the flask containing the promastigotes into a centrifuge tube. The tubes were then spun in a Sigma centrifuge at 2000 rpm for 12 min. After spinning, the medium was carefully poured off leaving the pellet only. This pellet was re-suspended in the 2–4 ml growth medium, and new cultures were established. The primary culture was used for sensitivity assays, and additional cultures were cryopreserved in liquid nitrogen at −196°C for future use.
The culture of L. tropica clinical field isolate KWH23 was established from already cryopreserved collection in the Department of Zoology, University of Peshawar. The initial culture was raised in the 5 ml M-199 medium supplemented with 10% heat-inactivated fetal bovine serum (HI-FBS), 100 μg/ ml penicillin, 100 μg/ ml streptomycin, 50 μg/ ml kanamycin, and 5 μg/ ml of hemin in a 15-ml culture flask. Two experiments were run at a time under the same conditions in 96-well flat-bottom plates. The promastigotes were counted in culture suspension by using the improved Neubauer hemocytometer. From the viable promastigotes bulk culture (4 × 10^6/ ml), 1 × 10^5 promastigotes/well in the 200 µL fresh M-199 medium were seeded in 96-well plates. Four different concentrations for each compound were applied, and one row of 12 wells was kept as a control with the growth medium only. The 96-well plates were incubated at 26°C for 48 h. After 48 h, the number of promastigotes in each well was counted microscopically using the improved Neubauer hemocytometer.

[2] = system: carrageenan-induced paw edema; assay: Carrageenan-induced paw edema studies; assay type: in vivo, Albino rats; conditions: for percent inhibition of carrageenan-induced paw edema: right after the carrageenan injection, p < 0.05
Method: as §1
Albino rats of either sex (180–200 g) were used to assess anti-inflammatory activity. The animals were randomly divided into five groups with each group having six albino rats (n = 6). Pedal inflammations in albino rats of either sex were produced according to the method described by Winter et al. (1962). Group 1 was treated with normal saline (5 ml/ kg) and group 2 was treated with oxyphenylbutazone (10 mg/ kg, i.p.), while groups 3–5 were treated with compounds 1–5 (10 mg/ kg and 20 mg/ kg, i.p.). After 30 min, 0.05 ml 1% carrageenan sodium salt (BDH) was subcutaneously injected into the plantar aponeurosis tissue of the right hind paw of each rat. The inflammation was measured using a plethysmometer (Apelex, France) immediately after +3 h of carrageenan injection. The anti-inflammatory activity was calculated using the following formula: 100(1−a−x/b−y), where “b” is the mean paw volume of control rats after carrageenan injection and “y” before the injection; whereas “x” is the mean paw volume of treated rats before injection and “a” is the mean paw volume after carrageenan injection.

Row | SMILES | activity against yeast-induced hyperthermia (yeast-induced pyrexia) | anti-leishmanial properties [1] | rectal temperature in yeast-induced pyrexia (yeast-induced pyrexia; 10 and 20 mg/kg of body weight) | anti-pyretic potential (yeast-induced pyrexia; at both concentrations (10 and 20 mg/kg)) | percent inhibition of carrageenan-induced paw edema ([2]; 10 mg/kg of chondrofolinol) | percent inhibition of carrageenan-induced paw edema ([2]; 20 mg/kg of chondrofolinol) | paw volume in carrageenan-induced paw edema ([2]; 10 and 20 mg/kg of body weight) | inhibition of the promastigotes of Leishmania tropica ([1]; 48 h incubation)
1 | COc1ccc2c(c1OC)C(C(Cl)(Cl)Cl)N1CCc3cc4c(cc3C1=C2)OCO4 (centres unmarked) [Compound 5, 8-trichloromethyldihydroberberine] | significantly active | strong anti-leishmanial properties |  |  |  |  |  | 
2 | COc1ccc2cc3[n+](cc2c1OC)CCc1cc2c(cc1-3)OCO2 [Compound 2, berberine] | significantly active | strong anti-leishmanial properties |  |  |  |  |  | 
3 | COc1cc2c(cc1OC)-c1cc3ccc(OC)c(OC)c3c[n+]1CC2 [Compound 4, palmatine] | significantly active | strong anti-leishmanial properties |  |  |  |  |  | 
4 | COc1cc2c3cc1Oc1c(O)ccc(c1O)CC1c4c(cc(OC)c(OC)c4Oc4ccc(cc4)CC3N(C)CC2)CCN1C (centres unmarked) [Compound 1, chondrofolinol] | significantly active | strong anti-leishmanial properties | significantly reduced | milder anti-pyretic potential | 32.12% | 53.34% | significantly reduced | ~100%
